A short description of this data set: recombinant UMI read abundance after kanamycin selection (control-corrected) (log10(CPM+1)); higher = more efficient recombination; extreme values may be limits of the assay; sequences stand for … in AGTGCAGAGAAAATCGGCCAGTTTTCTCTGCCTGCAGTCCGCATGCCGTGGGACCCCTTGGGTTCTAACCTGTTGCCTAGATTTATGCAGCGGACTGCCTTTCTCCCAAAGTGATAAACCGG…AGGTTGGTTTCACT; site = the 11-nt donor. In a few lines: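 Reported values are log10(CPM+1) from a pooled Escherichia coli screen of donor and donor-binding-loop pairs for the IS621 bridge recombinase. Selection used IPTG (0.07 mM) plus kanamycin, against unselected plating, each in two replicates. Recombinant UMIs were amplified across the donor–target junction, sequenced, converted to CPM, averaged over replicates and scaled by control-derived factors.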
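Further: IS621 bridge recombinase in Escherichia coli cells against a fixed T5 target plasmid.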

Take “GGCCACCCATGGACCGGTTTTCCCGGTAATCCGTATTTGTT (site GGCCACGCTAA)”: the “recombinant UMI read abundance (log10)” value stood at 0.0127.

As to “GGCCACCCATGGACCGGTTTTCCCGGTAATCCGTATTTGTT (site GGCCACTCTAA)”, the “recombinant UMI read abundance (log10)” value turned out to be 0.00279.

For the sequence “GGCCACCCATGGACCGGTTTTCCCGGTAATCCGTATTTGTT (site GGCCAGCCTAA)”, the “recombinant UMI read abundance (log10)” value is 0.

In the case of “GGCCACCCATGGACCGGTTTTCCCGGTAATCCGTATTTGTT (site GGCCATCCTAA)”, the “recombinant UMI read abundance (log10)” value stood at 0.0127.

For “GGCCACCCATGGACCGGTTTTCCCGGTAATCCGTATTTGTT (site GGCCCCCCTAA)”, the “recombinant UMI read abundance (log10)” value turned out to be 0.0711.

Turning to “GGCCACCCATGGACCGGTTTTCCCGGTAATCCGTATTTGTT (site GGCCGCCCTAA)”, the “recombinant UMI read abundance (log10)” value was determined as 0.0085.

In the case of “GGCCACCCATGGACCGGTTTTCCCGGTAATCCGTATTTGTT (site GGCCTCCCTAA)”, the “recombinant UMI read abundance (log10)” value amounted to 0.0064.

Take “GGCCACCCATGGACCGGTTTTCCCGGTAATCCGTATTTGTT (site GGCGACCCTAA)”: the “recombinant UMI read abundance (log10)” value was 0.0156.

“GGCCACCCATGGACCGGTTTTCCCGGTAATCCGTATTTGTT (site GGCTACCCTAA)”: the “recombinant UMI read abundance (log10)” value turned out to be 0.031.

Consider “GGCCACCCATGGACCGGTTTTCCCGGTAATCCGTATTTGTT (site GGGCACCCTAA)”, for which the “recombinant UMI read abundance (log10)” value was found to be 0.0781.

Take “GGCCACCCATGGACCGGTTTTCCCGGTAATCCGTATTTGTT (site GGTCACCCTAA)”: the “recombinant UMI read abundance (log10)” value stood at 0.0101.

“GGCCACCCATGGACCGGTTTTCCCGGTAATCCGTATTTGTT (site GTCCACCCTAA)”: the “recombinant UMI read abundance (log10)” value stood at 0.0225.

On to “GGCCACCCATGGACCGGTTTTCCCGGTAATCCGTATTTGTT (site TGCCACCCTAA)”, for which the “recombinant UMI read abundance (log10)” value stood at 0.0158.

For the sequence “GGCCACTCATGGACCGGTTTTCCCGGTAATCCGTATTTGTT (site GGCCACACTAA)”, the “recombinant UMI read abundance (log10)” value worked out at 0.0252.

“GGCCACTCATGGACCGGTTTTCCCGGTAATCCGTATTTGTT (site GGCCACCCTAA)”: the “recombinant UMI read abundance (log10)” value was 0.00888.

In the case of “GGCCACTCATGGACCGGTTTTCCCGGTAATCCGTATTTGTT (site GGCCACGCTAA)”, the “recombinant UMI read abundance (log10)” value came to 0.00402.

“GGCCACTCATGGACCGGTTTTCCCGGTAATCCGTATTTGTT (site GGCCACTCTAA)”: the “recombinant UMI read abundance (log10)” value came to 1.33.

On to “GGCCAGACATGGACCGGTTTTCCCGGTAATCCGTATTTGAC (site GGCCAGACTGT)”, for which the “recombinant UMI read abundance (log10)” value was 0.867.

Take “GGCCAGGCATGGACCGGTTTTCCCGGTAATCCGTATTTGTT (site GGCCAGGCTAA)”: the “recombinant UMI read abundance (log10)” value amounted to 0.00326.

Turning to “GGCCCAACATGGACCGGTTTTCCCGGTAATCCGTATTTGTA (site GGACCAACTTA)”, the “recombinant UMI read abundance (log10)” value was found to be 0.0271.

Regarding “GGCCCAACATGGACCGGTTTTCCCGGTAATCCGTATTTGTA (site GGCCCAACTTA)”, the “recombinant UMI read abundance (log10)” value stood at 0.848.

Regarding “GGCCCAACATGGACCGGTTTTCCCGGTAATCCGTATTTGTA (site GGGCCAACTTA)”, the “recombinant UMI read abundance (log10)” value was found to be 0.

Consider “GGCCCAACATGGACCGGTTTTCCCGGTAATCCGTATTTGTA (site GGTCCAACTTA)”, for which the “recombinant UMI read abundance (log10)” value was 0.00413.

Consider “GGCCCACCATGGACCGGTTTTCCCGGTAATCCGTATTTGTG (site GGCCCACCTCA)”, for which the “recombinant UMI read abundance (log10)” value amounted to 0.0252.

For “GGCCCCGCATGGACCGGTTTTCCCGGTAATCCGTATTTGAT (site GGCCCCGCTAT)”, the “recombinant UMI read abundance (log10)” value stood at 1.24.

In the case of “GGCCCGCCATGGACCGGTTTTCCCGGTAATCCGTATTTGAA (site GGCCCGCCTTT)”, the “recombinant UMI read abundance (log10)” value turned out to be 0.

On to “GGCCCGTCATGGACCGGTTTTCCCGGTAATCCGTATTTGCA (site GGCCCGTCTTG)”, for which the “recombinant UMI read abundance (log10)” value stood at 1.73.

“GGCCTGGCATGGACCGGTTTTCCCGGTAATCCGTATTTGAG (site GGCCTGGCTCT)”: the “recombinant UMI read abundance (log10)” value was found to be 0.666.

With “GGCGACCCATGGACCGGTTTTCCCGGTAATCCGTATTTGCC (site GGCGACCCTGG)”, the “recombinant UMI read abundance (log10)” value is 0.

Take “GGCGTGGCATGGACCGGTTTTCCCGGTAATCCGTATTTGCA (site GGCGTGGCTTG)”: the “recombinant UMI read abundance (log10)” value was 2.55.

With “GGCTACACATGGACCGGTTTTCCCGGTAATCCGTATTTGCA (site GGCTACACTTG)”, the “recombinant UMI read abundance (log10)” value amounted to 1.86.

On to “GGCTAGACATGGACCGGTTTTCCCGGTAATCCGTATTTGAC (site GGCTAGACTGT)”, for which the “recombinant UMI read abundance (log10)” value stood at 2.02.

For “GGCTCAACATGGACCGGTTTTCCCGGTAATCCGTATTTGCT (site GGCTCAACTAG)”, the “recombinant UMI read abundance (log10)” value worked out at 0.

Turning to “GGCTGCTCATGGACCGGTTTTCCCGGTAATCCGTATTTGTG (site GGCTGCTCTCA)”, the “recombinant UMI read abundance (log10)” value was 0.427.

As to “GGCTTCCCATGGACCGGTTTTCCCGGTAATCCGTATTTGTC (site GGCTTCCCTGA)”, the “recombinant UMI read abundance (log10)” value was found to be 0.

Consider “GGGAAACCATGGACCGGTTTTCCCGGTAATCCGTATTTGGC (site GGGAAACCTGC)”, for which the “recombinant UMI read abundance (log10)” value turned out to be 0.

Turning to “GGGAAGCCATGGACCGGTTTTCCCGGTAATCCGTATTTGGG (site GAGAAGCCTCC)”, the “recombinant UMI read abundance (log10)” value is 0.00654.

Take “GGGAAGCCATGGACCGGTTTTCCCGGTAATCCGTATTTGGG (site GCGAAGCCTCC)”: the “recombinant UMI read abundance (log10)” value is 0.

Consider “GGGAAGCCATGGACCGGTTTTCCCGGTAATCCGTATTTGGG (site GGGAAGCCTCC)”, for which the “recombinant UMI read abundance (log10)” value was found to be 0.00361.

Turning to “GGGAAGCCATGGACCGGTTTTCCCGGTAATCCGTATTTGGG (site GTGAAGCCTCC)”, the “recombinant UMI read abundance (log10)” value is 0.0194.

As for “GGGACGTCATGGACCGGTTTTCCCGGTAATCCGTATTTGTT (site GGAACGTCTAA)”, the “recombinant UMI read abundance (log10)” value was found to be 0.547.

With “GGGACGTCATGGACCGGTTTTCCCGGTAATCCGTATTTGTT (site GGCACGTCTAA)”, the “recombinant UMI read abundance (log10)” value came to 0.0541.

Turning to “GGGACGTCATGGACCGGTTTTCCCGGTAATCCGTATTTGTT (site GGGACGTCTAA)”, the “recombinant UMI read abundance (log10)” value stood at 1.78.

As to “GGGACGTCATGGACCGGTTTTCCCGGTAATCCGTATTTGTT (site GGTACGTCTAA)”, the “recombinant UMI read abundance (log10)” value was 0.0147.

As for “GGGAGGACATGGACCGGTTTTCCCGGTAATCCGTATTTGCC (site GGGAGGACTGG)”, the “recombinant UMI read abundance (log10)” value came to 2.04.

On to “GGGATAACATGGACCGGTTTTCCCGGTAATCCGTATTTGCC (site GGGATAACTGG)”, for which the “recombinant UMI read abundance (log10)” value turned out to be 0.

As to “GGGATGACATGGACCGGTTTTCCCGGTAATCCGTATTTGCT (site GGGATGACTAG)”, the “recombinant UMI read abundance (log10)” value came to 2.32.

Regarding “GGGATTGCATGGACCGGTTTTCCCGGTAATCCGTATTTGAC (site GGGATTGCTGT)”, the “recombinant UMI read abundance (log10)” value was determined as 2.05.

“GGGCAGCCATGGACCGGTTTTCCCGGTAATCCGTATTTGGG (site GGGCAGCCTCC)”: the “recombinant UMI read abundance (log10)” value worked out at 0.0377.

In the case of “GGGCATGCATGGACCGGTTTTCCCGGTAATCCGTATTTGAA (site GGGCATGCTTT)”, the “recombinant UMI read abundance (log10)” value was 1.59.

Take “GGGCCAACATGGACCGGTTTTCCCGGTAATCCGTATTTGTA (site GGACCAACTTA)”: the “recombinant UMI read abundance (log10)” value is 0.317.

Turning to “GGGCCAACATGGACCGGTTTTCCCGGTAATCCGTATTTGTA (site GGCCCAACTTA)”, the “recombinant UMI read abundance (log10)” value stood at 0.0205.

In the case of “GGGCCAACATGGACCGGTTTTCCCGGTAATCCGTATTTGTA (site GGGCCAACTTA)”, the “recombinant UMI read abundance (log10)” value came out at 0.645.

On to “GGGCCAACATGGACCGGTTTTCCCGGTAATCCGTATTTGTA (site GGTCCAACTTA)”, for which the “recombinant UMI read abundance (log10)” value is 0.0061.

“GGGCGACCATGGACCGGTTTTCCCGGTAATCCGTATTTGTT (site GGGCGACCTAA)”: the “recombinant UMI read abundance (log10)” value came to 0.

Turning to “GGGCGCCCATGGACCGGTTTTCCCGGTAATCCGTATTTGGG (site GGGCGCCCTCC)”, the “recombinant UMI read abundance (log10)” value is 0.0048.

Regarding “GGGCTGGCATGGACCGGTTTTCCCGGTAATCCGTATTTGAC (site GGGCTGGCTGT)”, the “recombinant UMI read abundance (log10)” value was determined as 0.6.

Turning to “GGGGAGCCATGGACCGGTTTTCCCGGTAATCCGTATTTGAA (site GGGGAGCCTTT)”, the “recombinant UMI read abundance (log10)” value is 0.

For “GGGGATACATGGACCGGTTTTCCCGGTAATCCGTATTTGAT (site GGGGATACTAT)”, the “recombinant UMI read abundance (log10)” value was determined as 1.2.

Consider “GGGGCAACATGGACCGGTTTTCCCGGTAATCCGTATTTGCA (site GGGGCAACTTG)”, for which the “recombinant UMI read abundance (log10)” value is 1.4.

On to “GGGGCAACATGGACCGGTTTTCCCGGTAATCCGTATTTGCA (site GGGGCACCTTG)”, for which the “recombinant UMI read abundance (log10)” value was determined as 0.00712.

In the case of “GGGGCAACATGGACCGGTTTTCCCGGTAATCCGTATTTGCA (site GGGGCAGCTTG)”, the “recombinant UMI read abundance (log10)” value came to 0.

“GGGGCAACATGGACCGGTTTTCCCGGTAATCCGTATTTGCA (site GGGGCATCTTG)”: the “recombinant UMI read abundance (log10)” value came to 0.

For the sequence “GGGGCACCATGGACCGGTTTTCCCGGTAATCCGTATTTGAA (site GGGGCACCTTA)”, the “recombinant UMI read abundance (log10)” value amounted to 0.00926.

Consider “GGGGCACCATGGACCGGTTTTCCCGGTAATCCGTATTTGAA (site GGGGCACCTTC)”, for which the “recombinant UMI read abundance (log10)” value was 0.018.

Consider “GGGGCACCATGGACCGGTTTTCCCGGTAATCCGTATTTGAA (site GGGGCACCTTG)”, for which the “recombinant UMI read abundance (log10)” value stood at 0.

Take “GGGGCACCATGGACCGGTTTTCCCGGTAATCCGTATTTGAA (site GGGGCACCTTT)”: the “recombinant UMI read abundance (log10)” value amounted to 0.0108.

“GGGGCACCATGGACCGGTTTTCCCGGTAATCCGTATTTGCC (site GGGGCACCTAG)”: the “recombinant UMI read abundance (log10)” value was 0.0374.

The values are drawn from the supplement of paper PMC11208160.
